Square brackets hold non-standard residues; d marks the D form. Peptide text beside a SMILES is read from it. Nspe = C[C@H](NCC(=O)O)c1ccccc1; Nlys = NCCCCNCC(=O)O
How the values were obtained:
[1] = test system: A549 lung epithelial cells; assay: MTS assay, metabolic inhibition
Description: The biocompatibility of selected oligomers with A549 lung epithelial cells was evaluated using the MTS [3-(4,5-dimethylthiazol-2-yl)-5-(3-carboxymethoxyphenyl)-2-(4-sulfophenyl)-2H-tetrazolium] assay.
MTS Assays. A549 carcinoma-derived lung epithelial cells (ATTC CCL-185) were cultured in Ham's F12K media (ATTC, Manassas, Va.). A peptoid solution plate (100 μL/well) was prepared by serial dilution of aqueous peptoid stocks in media. Peptoid solutions were transferred onto a 96-well plate of day-old cell monolayers containing 100 μL/well media with ˜5000 cells/well. MTS reagent (Promega Corporation, Madison, Wis.) (40 μL/well) was added to each well and the plate was incubated at 37° C. for 3 h, after which absorbance at 490 nm was determined. Percent inhibition was determined as [1−(A−Atest blank)/(Acontrol−Ablank)]×100, where A is the absorbance of the test well and Acontrol the average absorbance of wells with cells exposed to media and MTS (no peptoid). Atest blank (media, MTS, and peptoid) and Ablank (media and MTS) were background absorbances measured in the absence of cells. The average of six replicates are reported, and error bars show one standard deviation.

B. subtilis BR151 = assay type: cell-based; conditions: Table 1
Text: An initial set of 15 ampetoid analogs was synthesized to determine whether peptoids are affected by structural and sequence modifications in a manner consistent with AMP activities. The designs for ampetoids in this library were derived from two antibacterial and selective amphipathic dodecamers, 1 and 2. Peptoid 1 [H-(Nlys-Nspe-Nspe)4—NH2] is composed of 2/3 Nspe, the peptoid analog of phenylalanine, and 1/3 Nlys, the peptoid analog of lysine (see FIG. 1 for the structures of representative peptoid monomers and corresponding N-substituents). Peptoid 2 [H-(Nlys-Nssb-Nspe)4—NH2] contains 1/3 isoleucine-like Nssb monomers in place of Nspe. The variant sequences were designed to effect changes in chirality, length, hydrophobicity, charge, and amphipathicity. All of these compounds were tested for antibacterial activity against representative BSL1 Gram-negative (E. coli JM109) and Gram-positive (B. subtilis BR151) bacterial strains. As an initial measure of selectivity, the lytic activity of the peptoids was determined against human erythrocytes. Table 1 summarizes the sequences synthesized, the solvent composition at RP-HPLC elution as a relative measure of molecular hydrophobicity, and antibacterial and hemolytic activities.
Antibacterial assays. MICs were determined according to CLSI M7-A6 protocols in a 96-well microtiter plate. In test wells, 50 μL bacterial inoculum (5×10^5 CFU/ml) in Mueller-Hinton broth (MHB) was added to 50 μL peptoid solution in MHB (prepared by 1:2 serial dilutions). Positive controls contained 50 μL inoculum and 50 μL MHB without peptoid. […] MIC values reported were reproducible between three independent experimental replicates, each consisting of two parallel trials. Broad-spectrum antimicrobial susceptibility testing was performed against BSL2 pathogens by Nova Biologicals, Inc. (Conroe, Tex.).

[2] = test system: Candida albicans (SC5314); assay type: cell-based, C. albicans; conditions: Table 2
Description: Additionally, in order to characterize possible antifungal activity, a library of alkylated compounds was tested against C. albicans, a representative fungal strain.
Antifungal Assays. MICs were determined using the broth microdilution assay given by CLSI M27-A2 protocols. Candida albicans (SC5314) was grown on Sabouraud dextrose agar for 24 hours at 30° C. Cells were suspended in 0.145 M saline, and the cell concentration was adjusted to 3×10^6 cells/mL. After adjusting the cell concentration, the suspension was diluted 1:1000 with RPMI 1640 (with L-glutamine and without sodium bicarbonate, Invitrogen) buffered with 0.145 M 3-(N-morpholino) propanesulfonic acid (MOPS). Two-fold serial dilutions of peptoids, peptides, and amphotericin B (Calbiochem) were prepared in RPMI 1640 and mixed with an equal volume of the cell suspension in 96-well plates. The final testing concentrations for the peptoids and peptides were 0.20 to 100 μM, and concentrations for amphotericin B were 0.031 to 16 μM. Growth controls and sterility controls were also included. Plates were incubated for 48 hours at 35° C., and growth of C. albicans was inspected visually to determine the MICs. The MIC for each compound was defined as the lowest concentration with no visible fungal growth. Experiments were performed in duplicate on two separate days.

[3] = test system: Staphyloccus aureus (ATCC #25923); assay: Murine intraperitoneal infection model; assay type: in vivo; conditions: mouse, 4 mg/kg I.P.; eleven mice treated with 1-Nhis6,12
Description: Using a murine peritoneal injection mouse model, the ability of peptoids to treat infection was evaluated in vivo. The results from three separate studies of peptoid 1 and two of peptoid 1-Nhis6,12 against saline treated controls are shown in FIG. 7. The horizontal line represents the geometric mean of each population.
Murine intraperitoneal infection model. Bacteria was prepared by inoculating 5 mL of MHB with a single colony of Staphyloccus aureus (ATCC #25923) from a freshly streaked plate and grown overnight at 37 C. The following morning, the bacteria was subcultured by diluting 1/3 in MHB and grown for approximately 1.5 hours. The bacteria were then diluted 10-fold in a 5% mucin in PBS solution and thoroughly mixed. A sample was reserved to later determine the amount of bacteria the mice received.
Mice were weighed, marked, and injected I.P. with 200 uL of S. aureus inoculum. Four hours post infection, mice were treated I.P. with 4 mg/kg peptoid (˜100 ug per mouse). The infection is allowed to proceed overnight. Mice were euthanized by CO2 asphyxiation after 24 hours, and the peritoneal cavity was exposed and lavaged with 5 mL PBS. The lavage was mixed and reserved on ice until plating. […] Colonies were counted the following day, and the CFU/ml of each sample was calculated. […]

SMILES | ID10 relative to that of pexiganan [1] [times] | B. subtilis MIC (B. subtilis BR151) [µM] | C. albicans MIC [2] [µM] | mice that died prematurely during the exposure period [3]
C[C@@H](c1ccccc1)N(CC(N)=O)C(=O)CN(C(=O)CN(CCCCN)C(=O)CN(C(=O)CN(C(=O)CN(CCCCN)C(=O)[C@@H]1CCCN1C(=O)CN(C(=O)CN(CCCCN)C(=O)CN(C(=O)CN(C(=O)CNCCCCN)[C@@H](C)c1ccccc1)[C@@H](C)c1ccccc1)[C@@H](C)c1ccccc1)[C@@H](C)c1ccccc1)[C@@H](C)c1ccccc1)[C@@H](C)c1ccccc1 [1-Pro6, H-Nlys-Nspe-Nspe-Nlys-Nspe-L-Pro-(Nlys-Nspe-Nspe)2-NH2] (H-[Nlys][Nspe][Nspe][Nlys][Nspe]P[Nlys][Nspe][Nspe][Nlys][Nspe][Nspe]-NH2) | 10 |  |  | 
C[C@@H](c1ccccc1)N(CC(N)=O)C(=O)CN(C(=O)CN(CCCCN)C(=O)CN(C(=O)CN(C(=O)CN(CCCCN)C(=O)CN(C(=O)CN(C(=O)CN(CCCCN)C(=O)CN(C(=O)CN(C(=O)CNCCCCN)[C@@H](C)c1ccccc1)[C@@H](C)c1ccccc1)[C@@H](C)c1ccccc1)[C@@H](C)c1ccccc1)[C@@H](C)c1ccccc1)[C@@H](C)c1ccccc1)[C@@H](C)c1ccccc1 [compound 1, H-(NLys-Nspe-Nspe)4-NH2] (H-[Nlys][Nspe][Nspe][Nlys][Nspe][Nspe][Nlys][Nspe][Nspe][Nlys][Nspe][Nspe]-NH2) |  | 0.88 | 6.3 | no mice

Reference: US20100036088A1, “Selective poly-N-substituted glycine antibiotics” (priority 2008, published 2010)
